Source: PMC6150237, “Study of Absorption Characteristics of the Total Saponins from Radix Ilicis Pubescentis in an In Situ Single-Pass Intestinal Perfusion (SPIP) Rat Model by Using Ultra Performance Liquid Chromatography (UPLC)” (Molecules : A Journal of Synthetic Chemistry and Natural …, 2017)
“And” between values parts separate entries of the source, which are not always exact repeats. Identical values can stand only once. “Also recorded” adds a separate entry of the source.

What was measured:
Assay type in all cases: in vivo
[1] = tested on: rat small intestine (duodenum, jejunum, ileum); experiment: In situ single-pass intestinal perfusion (SPIP), saponins administrated in monomer forms; parameters: key to Papp / Ka: -: no absorption; settings: for intestinal absorption of monomers: small intestine, result in words
Method: (§1) MDQ-TS perfusion samples at low, middle, and high concentration levels of 1.25, 2.5, and 5.0 mg·mL^−1 were prepared by separately dissolving MDQ-TS in the minimum amount of DMSO and diluted with K-R buffer solution. The amount of DMSO was 0.5% in the final perfusion solutions. C1, C2, C3, C4, DC1, and DC2 perfusion samples with the concentration equivalent to the amount contained in 2.5 mg·mL^−1 of MDQ-TS were individually prepared in the same way. Verapamil, amantadine and EDTA were directly dissolved in the MDQ-TS perfusate with terminal concentrations of 200 μmol·L^−1, 2.5 mmol·L^−1, and 2.5 mmol·L^−1, accordingly, and used for investigating the mechanisms involved for absorption.
(§2) In situ single-pass intestinal perfusion (SPIP) studies were performed using an experimental design adapted from the literature with some modifications. Briefly, male Sprague-Dawley rats weighing 180–220 g were acclimatized for at least one week before the experiment, and fasted for 18 h with free access to water before the perfusion experiment. Rats were anesthetized with an intraperitoneal injection of urethane (30 mg·kg^−1 body weight), and kept on a homeothermic blanket to maintain normal body temperature. The abdomen was opened with a midline longitudinal incision, and three segments of rat intestine (duodenum, jejunum, and ileum) of approximately 10 cm each were carefully cannulated on two ends with plastic tubing. Initially, the perfusion solution free of drug (37 °C) was pumped by peristaltic pump (BT100-1F, Longer Pump Co., Baoding, China) through the cannulated segments at a flow rate of 1 mL/min for approximately 30 min in order to clean out any residual debris. Secondly, the perfusion solution containing a known concentration of substance (C1, C2, C3, C4, DC1, DC2, and MDQ-TS) was perfused at 37 °C through the intestinal lumen at a constant flow rate of 0.2 mL/min. The first 20 min of period corresponds to steady state, i.e., when the substance is in equilibrium with the intestinal membrane. After steady state, samples were collected from distal portion of duodenum, jejunum and ileum at 10 min intervals (0–10, 10–20, 20–30, 30–40, 40–50, 50–60 min) in pre-weighted vials. Samples were immediately frozen at −20 °C until analysis by validated UPLC. During the experiment, care was taken to avoid disturbance of the circulatory system and the exposed segment was covered with a piece of sterilized gauze to keep it warm and moist by frequent application of warm (37 °C) saline. The intestinum tenue maintained its viability and intact state without disrupting the blood supply throughout the experimental period. Finally, animals were sacrificed after depth anesthesia by intraperitoneal injection of urethane, according to protocols for euthanasia in experimental animals. After death, the intestinal segment was removed for measurements of length and inside diameter.
(§3) The net water flux in the in situ perfusion studies (water absorption and efflux in the intestinal segment) was determined by gravimetric method. The effective absorption rate constant (Ka) and effective apparent permeability (Papp) of compounds in the intestinal segments were calculated according to the following mathematical expression:(1) Ka=(1−CoutQout/CinQin)Q/V (2) Papp=−Qln(CoutQout/CinQin)/2πrl where Cin and Cout are the concentration of test drug in the effluent perfusate through the inlet and outlet tube (μg·mL^−1), respectively. Qin and Qout represent the inlet and outlet volume of effluent perfusate (mL), respectively. Q is the volume flow rate of perfusion (mL·h^−1). V is the volume of the intestinal segment concerned (mL). 2πrl is the area of the mass transfer surface of intestinal segment concerned (cm^2).

[2] = tested on: rat small intestine (duodenum, jejunum, ileum); experiment: In situ single-pass intestinal perfusion (SPIP), saponins administrated in MDQ-TS form; parameters: key: -: no absorption
Method: as §1, §2, §3

rat duodenum = experiment: SPIP of MDQ-TS with or without amantadine (endocytosis inhibitor); settings: MDQ-TS 2.5 mg/mL; for decrease of absorption compared with non-Amantadine added group: amantadine 2.5 mmol·L^−1
Method: as §1, §2
as §3, with “(cm^2). […]” for “(cm^2).”

[3] = monomer form, duodenum, concentration equivalent to 2.5 mg·mL^−1 MDQ-TS, n = 5
[4] = MDQ-TS form 1.25 mg·mL^−1, duodenum, n = 5
[5] = MDQ-TS form 1.25 mg·mL^−1, ileum, n = 5
[6] = MDQ-TS form 1.25 mg·mL^−1, jejunum, n = 5
[7] = MDQ-TS form 2.5 mg·mL^−1, duodenum, n = 5
[8] = MDQ-TS form 2.5 mg·mL^−1, ileum, n = 5
[9] = MDQ-TS form 2.5 mg·mL^−1, jejunum, n = 5
[10] = MDQ-TS form 5.0 mg·mL^−1, duodenum, n = 5
[11] = MDQ-TS form 5.0 mg·mL^−1, ileum, n = 5
[12] = MDQ-TS form 5.0 mg·mL^−1, jejunum, n = 5
[13] = administrated in MDQ-TS form, summary bound (except DC2 in 1.25 mg·mL^−1 MDQ-TS group)
[14] = MDQ-TS form 1.25 mg·mL^−1, duodenum, symbol
[15] = MDQ-TS form 1.25 mg·mL^−1, ileum, symbol
[16] = MDQ-TS form 1.25 mg·mL^−1, jejunum, symbol

Compound | Ka [2, 4] | Papp [2, 4] | Ka [2, 5] | Papp [2, 5] | Ka [2, 6] | Papp [2, 6] | Ka [2, 7] | Papp [2, 7] | Ka [2, 8] | Papp [2, 8] | Ka [2, 9] | Papp [2, 9] | Ka [2, 10] | Papp [2, 10] | Ka [2, 11] | Papp [2, 11] | Ka [2, 12] | Papp [2, 12] | Papp [2, 13] [cm/min] | Ka ([1]; monomer form, duodenum, symbol) | further results
C[C@H]1CC[C@]2(C(=O)O)CC[C@]3(C)C(=CC[C@@H]4[C@@]5(C)CC[C@H](O[C@@H]6OC[C@@H](O)[C@H](O)[C@H]6O[C@@H]6O[C@H](CO)[C@@H](O)[C@H](O)[C@H]6O)C(C)(C)[C@@H]5CC[C@]43C)[C@@H]2[C@]1(C)O [C3, ilexsaponin B1] | 1.16 ± 0.26 ×10^−2 min^−1 | 0.24 ± 0.10 ×10^−2 cm·min^−1 | 1.04 ± 0.11 ×10^−2 min^−1 | 0.18 ± 0.01 ×10^−2 cm·min^−1 | 0.94 ± 0.12 ×10^−2 min^−1 | 0.17 ± 0.04 ×10^−2 cm·min^−1 | 2.19 ± 0.52 ×10^−2 min^−1 | 0.36 ± 0.06 ×10^−2 cm·min^−1 | 3.77 ± 0.41 ×10^−2 min^−1 | 0.42 ± 0.03 ×10^−2 cm·min^−1 | 3.82 ± 0.49 ×10^−2 min^−1 | 0.40 ± 0.13 ×10^−2 cm·min^−1 | 1.80 ± 0.97 ×10^−2 min^−1 | 0.39 ± 0.24 ×10^−2 cm·min^−1 | 1.66 ± 0.95 ×10^−2 min^−1 | 0.29 ± 0.15 ×10^−2 cm·min^−1 | 2.48 ± 0.86 ×10^−2 min^−1 | 0.40 ± 0.24 ×10^−2 cm·min^−1 | > 0.0012 |  | Papp ([1]; administered in monomer forms, summary bound): > 0.0012 cm/min; Ka [1, 3]: 1.49 ± 0.36 ×10^−2 min^−1; Papp [1, 3]: 0.23 ×10^−2 cm·min^−1 and 0.23 ± 0.02 ×10^−2 cm·min^−1; Ka ([1]; monomer form, ileum, n = 5): 1.38 ± 0.06 ×10^−2 min^−1; Papp ([1]; monomer form, ileum, n = 5): 0.21 ± 0.06 ×10^−2 cm·min^−1; Ka ([1]; monomer form, jejunum, n = 5): 1.56 ± 0.30 ×10^−2 min^−1; Papp ([1]; monomer form, jejunum, n = 5): 0.23 ×10^−2 cm·min^−1 and 0.23 ± 0.05 ×10^−2 cm·min^−1; permeability classification ([1]; monomers, Papp > 0.12 × 10^−2 cm·min^−1 classified as completely absorbed (highly permeable)): highly permeable
C[C@@H]1O[C@@H](O[C@H]2[C@H](O[C@H]3[C@H](O[C@H]4CC[C@]5(C)[C@H]6CC=C7[C@H]8[C@](C(=O)O)(CC[C@H](C)[C@@]8(C)O)CC[C@@]7(C)[C@]6(C)CC[C@H]5C4(C)C)OC[C@@H](O)[C@@H]3O)O[C@H](CO)[C@@H](O)[C@@H]2O)[C@H](O)[C@H](O)[C@H]1O [C4, ilexsaponin B2] | 1.04 ± 0.31 ×10^−2 min^−1 | 0.20 ± 0.09 ×10^−2 cm·min^−1 | 0.83 ± 0.28 ×10^−2 min^−1 | 0.14 ± 0.04 ×10^−2 cm·min^−1 | 0.84 ± 0.47 ×10^−2 min^−1 | 0.14 ± 0.05 ×10^−2 cm·min^−1 | 1.94 ± 0.50 ×10^−2 min^−1 | 0.42 ± 0.05 ×10^−2 cm·min^−1 | 2.53 ± 0.29 ×10^−2 min^−1 | 0.40 ± 0.03 ×10^−2 cm·min^−1 | 3.19 ± 0.56 ×10^−2 min^−1 | 0.49 ± 0.03 ×10^−2 cm·min^−1 | 1.87 ± 0.86 ×10^−2 min^−1 | 0.40 ± 0.22 ×10^−2 cm·min^−1 | 1.52 ± 0.92 ×10^−2 min^−1 | 0.26 ± 0.15 ×10^−2 cm·min^−1 | 1.92 ± 0.61 ×10^−2 min^−1 | 0.45 ± 0.18 ×10^−2 cm·min^−1 | > 0.0012 | - | Papp ([1]; monomer form, duodenum, symbol): -; Ka ([1]; monomer form, ileum, symbol): -; Papp ([1]; monomer form, ileum, symbol): -; Ka ([1]; monomer form, jejunum, symbol): -; Papp ([1]; monomer form, jejunum, symbol): -; intestinal absorption of monomers ([1]; monomer form): could not be absorbed by small intestine at all; also recorded: no absorption; also recorded: could not be absorbed by the gastrointestinal tract at all; decrease of absorption compared with non-Amantadine added group (rat duodenum): 31%
C[C@@H]1O[C@@H](O[C@H]2[C@H](O[C@H]3[C@H](O[C@H]4CC[C@]5(C)[C@H]6CC=C7[C@H]8[C@](C(=O)O[C@@H]9O[C@H](CO)[C@@H](O)[C@H](O)[C@H]9O)(CC[C@H](C)[C@@]8(C)O)CC[C@@]7(C)[C@]6(C)CC[C@H]5C4(C)C)OC[C@@H](O)[C@@H]3O)O[C@H](CO)[C@@H](O)[C@@H]2O)[C@H](O)[C@H](O)[C@H]1O [DC2, ilexoside O] |  |  |  |  |  |  | 0.62 ± 0.13 ×10^−2 min^−1 | 0.16 ± 0.06 ×10^−2 cm·min^−1 | 1.54 ± 0.85 ×10^−2 min^−1 | 0.19 ± 0.08 ×10^−2 cm·min^−1 | 1.23 ± 0.46 ×10^−2 min^−1 | 0.21 ± 0.08 ×10^−2 cm·min^−1 | 1.27 ± 0.44 ×10^−2 min^−1 | 0.25 ± 0.16 ×10^−2 cm·min^−1 | 1.14 ± 0.45 ×10^−2 min^−1 | 0.19 ± 0.07 ×10^−2 cm·min^−1 | 1.73 ± 0.66 ×10^−2 min^−1 | 0.26 ± 0.17 ×10^−2 cm·min^−1 | > 0.0012 | - | Papp ([1]; monomer form, duodenum, symbol): -; Ka ([1]; monomer form, ileum, symbol): -; Papp ([1]; monomer form, ileum, symbol): -; Ka ([1]; monomer form, jejunum, symbol): -; Papp ([1]; monomer form, jejunum, symbol): -; intestinal absorption of monomers ([1]; monomer form): could not be absorbed by small intestine at all; also recorded: no absorption; also recorded: could not be absorbed by the gastrointestinal tract at all; Ka [2, 14]: -; Papp [2, 14]: -; Ka [2, 15]: -; Papp [2, 15]: -; Ka [2, 16]: -; Papp [2, 16]: -; decrease of absorption compared with non-Amantadine added group (rat duodenum): 100%; absorption when co-perfusion with Amantadine (rat duodenum; amantadine 2.5 mmol·L^−1, result in words): completely inhibited
ilexsaponin B3 [DC1] | 0.56 ± 0.17 ×10^−2 min^−1 | 0.13 ± 0.05 ×10^−2 cm·min^−1 | 0.59 ± 0.35 ×10^−2 min^−1 | 0.22 ± 0.13 ×10^−2 cm·min^−1 | 0.46 ± 0.21 ×10^−2 min^−1 | 0.23 ± 0.15 ×10^−2 cm·min^−1 | 1.76 ± 0.44 ×10^−2 min^−1 | 0.34 ± 0.08 ×10^−2 cm·min^−1 | 1.65 ± 0.33 ×10^−2 min^−1 | 0.16 ± 0.07 ×10^−2 cm·min^−1 | 1.99 ± 0.49 ×10^−2 min^−1 | 0.35 ± 0.08 ×10^−2 cm·min^−1 | 1.53 ± 0.55 ×10^−2 min^−1 | 0.30 ± 0.13 ×10^−2 cm·min^−1 | 1.21 ± 0.58 ×10^−2 min^−1 | 0.21 ± 0.11 ×10^−2 cm·min^−1 | 2.05 ± 0.72 ×10^−2 min^−1 | 0.32 ± 0.19 ×10^−2 cm·min^−1 | > 0.0012 | - | Papp ([1]; monomer form, duodenum, symbol): -; Ka ([1]; monomer form, ileum, symbol): -; Papp ([1]; monomer form, ileum, symbol): -; Ka ([1]; monomer form, jejunum, symbol): -; Papp ([1]; monomer form, jejunum, symbol): -; intestinal absorption of monomers ([1]; monomer form): could not be absorbed by small intestine at all; also recorded: no absorption; also recorded: could not be absorbed by the gastrointestinal tract at all; decrease of absorption compared with non-Amantadine added group (rat duodenum): 53%
